Legend:
Type in all cases: in vivo
[1] = test system: Stellaria media (STEME); assay: Herbicidal pre-emergence action, test C (Table C8); settings: visual scoring after about 3 weeks, 100% = plants have died, 0% = like control plants
How it was run: (§1)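 Pre-emergence soil-surface spray, 1280 or 320 g/ha, WP/EC in water with 0.5% additive, 600 L/ha. Sandy loam pots, doubly sown. Greenhouse ~3 weeks; visual % effect vs untreated (0% = like control, 100% = dead).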

[2] = test system: Abutilon theophrasti (ABUTH); assay: Herbicidal post-emergence action (Table B5); settings: rated visually after about 3 weeks, 100% = plants have died, 0% = like control plants
How it was run: (§2)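 Weeds grown from seed in sandy loam in the greenhouse were sprayed at the one-leaf stage, 2 to 3 weeks after sowing, with WP or EC formulations in water plus 0.5% additive at 600 L/ha. Rates corresponded to 1280 or 320 g/ha; damage was rated visually versus untreated controls after about 3 weeks.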

[3] = test system: Matricaria inodora (MATIN); assay: Herbicidal pre-emergence action, test C (Table C7); settings: dosage 1280 g/ha; visual scoring after about 3 weeks; 100% = plants have died, 0% = like control plants
How it was run: as §1

[4] = test system: Amaranthus retroflexus (AMARE); assay: Herbicidal pre-emergence action, test C (Table C6); settings: dosage 1280 g/ha; visual scoring after about 3 weeks; 100% = plants have died, 0% = like control plants
How it was run: as §1

[5] = test system: Poa annua (POAAN); assay: Herbicidal pre-emergence action, test C (Table C3); settings: visual scoring after about 3 weeks, 100% = plants have died, 0% = like control plants
How it was run: as §1

[6] = test system: Echinochloa crus-galli (ECHCG); assay: Herbicidal pre-emergence action, test C (Table C1); settings: dosage 1280 g/ha; visual scoring after about 3 weeks; 100% = plants have died, 0% = like control plants
Excerpt: (§3) Seeds of mono- and dicotyledonous weed plants were placed in plastic pots in sandy loam soil (doubly sown with one species each of mono- or dicotyledonous weed plants per pot) and covered with soil. The compounds of the invention, formulated in the form of wettable powders (WP) or as emulsion concentrates (EC), were then applied onto the surface of the covering soil as aqueous suspension or emulsion with addition of 0.5% additive at a water application rate of 600 liters per hectare (converted). After the treatment, the pots were placed in a greenhouse and kept under good growth conditions for the test plants. After about 3 weeks, the effect of the preparations was scored visually in comparison with untreated controls as percentages. For example, 100% activity=the plants have died, 0% activity=like control plants. Tables C1 to C12 below show the effects of selected compounds of the general formula (I) according to Table 1 on various harmful plants and an application rate corresponding to 1280 or 320 g/ha, which were obtained by the experimental procedure mentioned above.

[7] = test system: Abutilon theophrasti (ABUTH); assay: Herbicidal pre-emergence action, test C (Table C5); settings: dosage 1280 g/ha; visual scoring after about 3 weeks; 100% = plants have died, 0% = like control plants
How it was run: as §1

[8] = test system: Setaria viridis (SETVI); assay: Herbicidal pre-emergence action, test C (Table C4); settings: dosage 1280 g/ha; visual scoring after about 3 weeks; 100% = plants have died, 0% = like control plants
How it was run: as §1

[9] = test system: harmful plants ABUTH, AMARE, ECHCG, LOLRI, MATIN, POAAN, SETVI, STEME, ALOMY, DIGSA, KCHSC and VERPE; assay: Herbicidal post-emergence action, summary of Tables B1-B12; settings: application rate of 1280 or 320 g of active ingredient per hectare; summary in words
How it was run: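 Greenhouse weeds in sandy loam treated post-emergence at the one-leaf stage, 2–3 weeks after sowing, with WP or EC formulations sprayed with 0.5% additive at 600 L/ha water, 1280 or 320 g/ha. Damage rated visually after about 3 weeks versus untreated controls (0% = like control, 100% = dead).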

[10] = test system: harmful plants ABUTH, AMARE, ECHCG, LOLRI, MATIN, POAAN, SETVI, STEME, ALOMY, DIGSA, KCHSC and VERPE; assay: Herbicidal pre-emergence action (test C), summary of Tables C1-C12; settings: application rate of 1280 or 320 g of active ingredient per hectare; summary in words
How it was run: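 Pre-emergence pot test in sandy loam: WP or EC formulations were sprayed onto the covering soil with 0.5% additive at 600 L/ha water, at 1280 or 320 g/ha. Plants were kept in the greenhouse, and activity was rated visually about 3 weeks later as % versus untreated controls (100% = dead).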

[11] = test system: Amaranthus retroflexus (AMARE); assay: Herbicidal post-emergence action (Table B6); settings: visual rating about 3 weeks after treatment, 100% = plants have died, 0% = like control plants
How it was run: as §2

[12] = test system: Agrostis tenuis (AGSTE); assay: Herbicidal early post-emergence action (Table A1); settings: 1900 g/ha; scored visually 9 to 12 days after treatment; 100% = plants have died, 0% = like control plants
Method: (§4) Seeds of monocotyledonous and dicotyledonous weed plants were placed in 96-well microtiter plates in quartz sand and grown in a climatized chamber under controlled growth conditions. 5 to 7 days after sowing, the test plants were treated at the cotyledon stage. The compounds according to the invention, formulated in the form of emulsion concentrates (EC), were applied with a water application rate of the equivalent of 2200 liters per hectare. After the test plants had been left to stand in the climatized chamber for 9 to 12 days under optimum growth conditions, the effect of the preparations was scored visually in comparison to untreated controls. For example, 100% activity=the plants have died, 0% activity=like control plants. Tables A1 to A8 below show the effects of selected compounds of the general formula (I) according to Table 1 on various harmful plants and an application rate corresponding to 1900 g/ha, which were obtained by the experimental procedure mentioned above.

[13] = test system: harmful plants AGSTE, DIPTE, LOLPE, MATCH, POAAN, SETVI, STEME and VERPE; assay: Herbicidal early post-emergence action, summary of Tables A1-A8; settings: application rate of 1900 g of active ingredient per hectare; summary in words
Method: as §4, with “plants.” for “plants. Tables A1 to A8 below show the effects of selected compounds of the general formula (I) according to Table 1 on various harmful plants and an application rate corresponding to 1900 g/ha, which were obtained by the experimental procedure mentioned above.”
Tables A1 to A8 below show the effects of selected compounds of the general formula (I) according to Table 1 on various harmful plants and an application rate corresponding to 1900 g/ha, which were obtained by the experimental procedure mentioned above.
As the results of Tables A1-A8 show, compounds no.

[14] = test system: Veronica persica (VERPE); assay: Herbicidal post-emergence action (Table B12); settings: dosage 1280 g/ha; visual rating about 3 weeks after treatment; 100% = plants have died, 0% = like control plants
How it was run: as §2

[15] = test system: Veronica persica (VERPE); assay: Herbicidal pre-emergence action, test C (Table C12); settings: dosage 1280 g/ha, visual scoring vs untreated controls
How it was run: as §1

[16] = test system: Stellaria media (STEME); assay: Herbicidal post-emergence action (Table B8); settings: dosage 1280 g/ha; visual rating about 3 weeks after treatment; 100% = plants have died, 0% = like control plants
How it was run: as §2

[17] = test system: Echinochloa crus-galli (ECHCG); assay: Herbicidal post-emergence action (Table B1); settings: rated visually after about 3 weeks, 100% = plants have died, 0% = like control plants
Method: (§5) Seeds of mono- and dicotyledonous weed plants were placed in plastic pots in sandy loam soil (doubly sown with in each case one species of mono- or dicotyledonous weed plants per pot), covered with soil and cultivated in a greenhouse under controlled growth conditions. 2 to 3 weeks after sowing, the test plants were treated at the one-leaf stage. The compounds of the invention, formulated in the form of wettable powders (WP) or as emulsion concentrates (EC), were applied onto the green parts of the plants as aqueous suspension or emulsion with addition of 0.5% additive at a water application rate of 600 liters per hectare (converted). After the test plants had been kept in the greenhouse under optimum growth conditions for about 3 weeks, the activity of the preparations was rated visually in comparison to untreated controls. For example, 100% activity=the plants have died, 0% activity=like control plants. Tables B1 to B12 below show the effects of selected compounds of the general formula (I) according to Table 1 on various harmful plants and an application rate corresponding to 1280 or 320 g/ha, which were obtained by the experimental procedure mentioned above.

[18] = test system: Digitaria sanguinalis (DIGSA); assay: Herbicidal pre-emergence action, test C (Table C10); settings: dosage 1280 g/ha; visual scoring after about 3 weeks; 100% = plants have died, 0% = like control plants
How it was run: as §1

[19] = test system: Bassia scoparia (KCHSC); assay: Herbicidal post-emergence action (Table B11); settings: visual rating about 3 weeks after treatment, 100% = plants have died, 0% = like control plants
Method: as §5

[20] = test system: Digitaria sanguinalis (DIGSA); assay: Herbicidal post-emergence action (Table B10); settings: dosage 1280 g/ha; visual rating about 3 weeks after treatment; 100% = plants have died, 0% = like control plants
Method: as §5

[21] = test system: Poa annua (POAAN); assay: Herbicidal post-emergence action (Table B3); settings: rated visually after about 3 weeks, 100% = plants have died, 0% = like control plants
How it was run: as §2

[22] = test system: Alopecurus myosuroides (ALOMY); assay: Herbicidal post-emergence action (Table B9); settings: rated visually after about 3 weeks, 100% = plants have died, 0% = like control plants
Method: as §5

[23] = test system: Alopecurus myosuroides (ALOMY); assay: Herbicidal pre-emergence action, test C (Table C9); settings: dosage 1280 g/ha; visual scoring after about 3 weeks; 100% = plants have died, 0% = like control plants
Excerpt: as §3

N#Cc1ccc(Oc2cccc(F)c2-c2cc(C(F)F)on2)nc1 [Example 1-11]
Pre-emergence action against Stellaria media (STEME) ([1]; dosage 1280 g/ha): 100% | Post-emergence action against Abutilon theophrasti (ABUTH) ([2]; 1280 g/ha): 100% | Pre-emergence action against Matricaria inodora (MATIN) [3]: 90% | Pre-emergence action against Amaranthus retroflexus (AMARE) [4]: 100% | Pre-emergence action against Poa annua (POAAN) ([5]; dosage 1280 g/ha): 90% | Pre-emergence action against Echinochloa crus-galli (ECHCG) [6]: 90% | Pre-emergence action against Abutilon theophrasti (ABUTH) [7]: 100% | Pre-emergence action against Setaria viridis (SETVI) [8]: 90% | herbicidal activity against the harmful plants of Tables B1-B12 in post-emergence treatment [9]: very good herbicidal activity | herbicidal activity against the harmful plants of Tables C1-C12 in pre-emergence treatment [10]: very good herbicidal activity | Post-emergence action against Amaranthus retroflexus (AMARE) ([11]; dosage 320 g/ha): 100% | Post-emergence action against Amaranthus retroflexus (AMARE) ([11]; dosage 1280 g/ha): 100%

Fc1cccc(Oc2ncc(Cl)cc2Cl)c1-c1cc(C(F)F)on1 [Example 1-12]
Early post-emergence effect against Agrostis tenuis (AGSTE) [12]: 80% | herbicidal activity against the harmful plants of Tables A1-A8 in early post-emergence treatment [13]: very good herbicidal activity

Fc1cccc(Oc2ncc(C(F)(F)F)cc2Cl)c1-c1cc(C(F)F)on1 [Example 1-13]
Early post-emergence effect against Agrostis tenuis (AGSTE) [12]: 80% | herbicidal activity against the harmful plants of Tables A1-A8 in early post-emergence treatment [13]: very good herbicidal activity

Cc1ccc(-c2cc(C(F)F)no2)c(Oc2ccc(Cl)cn2)c1 [Example 1-26]
Post-emergence action against Veronica persica (VERPE) [14]: 100% | Pre-emergence action against Stellaria media (STEME) ([1]; dosage 320 g/ha): 100% | Pre-emergence action against Stellaria media (STEME) ([1]; dosage 1280 g/ha): 100% | Post-emergence action against Abutilon theophrasti (ABUTH) ([2]; 320 g/ha): 90% | Post-emergence action against Abutilon theophrasti (ABUTH) ([2]; 1280 g/ha): 100% | Pre-emergence action against Matricaria inodora (MATIN) [3]: 100% | Pre-emergence action against Veronica persica (VERPE) [15]: 90% | Pre-emergence action against Poa annua (POAAN) ([5]; dosage 320 g/ha): 90% | Pre-emergence action against Poa annua (POAAN) ([5]; dosage 1280 g/ha): 100% | Post-emergence action against Stellaria media (STEME) [16]: 100% | Post-emergence action against Echinochloa crus-galli (ECHCG) ([17]; 320 g/ha): 100% | Post-emergence action against Echinochloa crus-galli (ECHCG) ([17]; 1280 g/ha): 100% | Pre-emergence action against Digitaria sanguinalis (DIGSA) [18]: 90% | Post-emergence action against Bassia scoparia (KCHSC) ([19]; dosage 320 g/ha): 90% | Post-emergence action against Bassia scoparia (KCHSC) ([19]; dosage 1280 g/ha): 100% | Pre-emergence action against Abutilon theophrasti (ABUTH) [7]: 90% | Post-emergence action against Digitaria sanguinalis (DIGSA) [20]: 90% | Post-emergence action against Poa annua (POAAN) ([21]; 320 g/ha): 100% | Post-emergence action against Poa annua (POAAN) ([21]; 1280 g/ha): 100% | Pre-emergence action against Setaria viridis (SETVI) [8]: 90% | herbicidal activity against the harmful plants of Tables B1-B12 in post-emergence treatment [9]: very good herbicidal activity | herbicidal activity against the harmful plants of Tables C1-C12 in pre-emergence treatment [10]: very good herbicidal activity | Post-emergence action against Amaranthus retroflexus (AMARE) ([11]; dosage 1280 g/ha): 100% | Post-emergence action against Alopecurus myosuroides (ALOMY) ([22]; 320 g/ha): 100% | Post-emergence action against Alopecurus myosuroides (ALOMY) ([22]; 1280 g/ha): 100% | Pre-emergence action against Alopecurus myosuroides (ALOMY) [23]: 90%

Fc1ccc(Oc2ccc(Cl)cn2)c(-c2cc(C(F)F)on2)c1 [Example 1-30]
Early post-emergence effect against Agrostis tenuis (AGSTE) [12]: 80% | herbicidal activity against the harmful plants of Tables A1-A8 in early post-emergence treatment [13]: very good herbicidal activity

Oc1ccc(-c2cc(C(F)F)no2)c(Oc2ccc(Cl)cn2)c1 [Example 1-42]
Early post-emergence effect against Agrostis tenuis (AGSTE) [12]: 80% | herbicidal activity against the harmful plants of Tables A1-A8 in early post-emergence treatment [13]: very good herbicidal activity

FC(F)(F)c1cccc(-c2ccccc2Oc2ccccn2)n1 [Example 1-50]
Early post-emergence effect against Agrostis tenuis (AGSTE) [12]: 80% | herbicidal activity against the harmful plants of Tables A1-A8 in early post-emergence treatment [13]: very good herbicidal activity

Cn1nc(C(F)F)cc1-c1c(F)cccc1Oc1ncc(Cl)cc1F [Example 1-82]
Early post-emergence effect against Agrostis tenuis (AGSTE) [12]: 80% | herbicidal activity against the harmful plants of Tables A1-A8 in early post-emergence treatment [13]: very good herbicidal activity

Reference: patent publication US12052991B2, “Substituted pyridinyloxybenzenes and salts thereof and use thereof as herbicidal agents” (Bayer Aktiengesellschaft, priority 2018, dated 2024)
